Results from ChEMBL document CHEMBL4680265, “Anti-tubulin agent vinorelbine inhibits metastasis of cancer cells by regulating epithelial-mesenchymal transition” (Eur J Med Chem, 2020).
pIC50: −log10 of the molar value. Calls of active or inactive are those of the source. The rule behind the calls is not given here.

Columns and labels:
HepG2 [1] = assay: Induction of apoptosis in human HepG2 cells assessed as increase in late apoptotic cells at 0.1 to 10 uM incubated for 48 hrs by annexin V-FITC and PI staining based flow cytometry analysis; assay type: functional, cell-based; conditions: dose 0.1-10 µM
NCI-H1975 [2] = assay: Induction of cell cycle arrest in human NCI-H1975 cells assessed as increase in G2/M phase accumulation at 1 nM incubated for 24 hrs by propidium iodide staining based flow cytometry analysis relative to control; assay type: functional
HepG2 [3] = assay: Inhibition of epithelial-mesenchymal transition in human HepG2 cells assessed as downregulation of MMP-2 by Western blot analysis; assay type: functional, cell-based; conditions: dose 0.1-10 µM
HepG2 [4] = assay: Induction of cell cycle arrest in human HepG2 cells assessed as increase in G2/M phase accumulation at 0.1 to 10 uM incubated for 24 hrs by propidium iodide staining based flow cytometry analysis; assay type: functional; conditions: dose 0.1-10 µM
NCI-H1975 [5] = assay: Induction of cell cycle arrest in human NCI-H1975 cells assessed as increase in G2/M phase accumulation at 100 nM incubated for 24 hrs by propidium iodide staining based flow cytometry analysis relative to control; assay type: functional
NCI-H1975 [6] = assay: Induction of apoptosis in human NCI-H1975 cells assessed as decrease in Bcl-2 expression at 1 to 100 nM incubated for 48 hrs by Western blot analysis; assay type: functional, cell-based; conditions: dose 1-100 nM
HepG2 [7] = assay: Inhibition of epithelial-mesenchymal transition in human HepG2 cells assessed as downregulation of Snail-1 by Western blot analysis; assay type: functional, cell-based; conditions: dose 0.1-10 µM
NCI-H1975 [8] = assay: Inhibition of epithelial-mesenchymal transition in human NCI-H1975 cells assessed as increase in Vimentin expression at 1 to 100 nM by Western blot analysis; assay type: functional, cell-based; conditions: dose 1-100 nM
NCI-H1975 [9] = assay: Induction of cell cycle arrest in human NCI-H1975 cells assessed as decrease in cyclin B1 level at 1 to 100 nM incubated for 24 hrs by Western blot analysis; assay type: functional, cell-based; conditions: dose 1-100 nM
HepG2 [10] = assay: Cytotoxicity against human HepG2 cells assessed as reduction in cell viability incubated for 48 hrs by MTT assay; assay type: functional, cell-based; conditions: HepG2, 48 h
HCT-116 [11] = assay: Induction of cell cycle arrest in human HCT-116 cells assessed as increase in G2/M phase accumulation at 0.01 to 1 uM incubated for 24 hrs by propidium iodide staining based flow cytometry analysis; assay type: functional; conditions: dose 0.01-1 µM
HepG2 [12] = assay: Inhibition of epithelial-mesenchymal transition in human HepG2 cells assessed as decrease in Vimentin expression at 0.1 to 10 uM by Western blot analysis; assay type: functional, cell-based; conditions: dose 0.1-10 µM
NCI-H1975 [13] = assay: Induction of cell cycle arrest in human NCI-H1975 cells assessed as increase in G2/M phase accumulation at 10 nM incubated for 24 hrs by propidium iodide staining based flow cytometry analysis relative to control; assay type: functional
NCI-H1975 [14] = assay: Inhibition of epithelial-mesenchymal transition in human NCI-H1975 cells assessed as increase in E-cadherin expression at 1 to 100 nM by Western blot analysis; assay type: functional, cell-based; conditions: dose 1-100 nM
HepG2 [15] = assay: Antimigratory activity against human HepG2 cells assessed as reduction in migration at 0.1 nM measured after 96 hrs by scratch wound healing based inverted microscopic analysis relative to control; assay type: functional
NCI-H1975 [16] = assay: Inhibition of epithelial-mesenchymal transition in human NCI-H1975 cells assessed as downregulation of MMP-2 by Western blot analysis; assay type: functional, cell-based; conditions: dose 1-100 nM
HepG2 [17] = assay: Inhibition of epithelial-mesenchymal transition in human HepG2 cells assessed as downregulation of MMP-9 by Western blot analysis; assay type: functional, cell-based; conditions: dose 0.1-10 µM
NCI-H1975 [18] = assay: Inhibition of epithelial-mesenchymal transition in human NCI-H1975 cells assessed as downregulation of MMP-9 by Western blot analysis; assay type: functional, cell-based; conditions: dose 1-100 nM
NCI-H1975 [19] = assay: Induction of apoptosis in human NCI-H1975 cells assessed as increase in late apoptotic cells at 1 to 100 nM incubated for 48 hrs by annexin V-FITC and PI staining based flow cytometry analysis; assay type: functional, cell-based; conditions: dose 1-100 nM
HCT-116 [20] = assay: Cytotoxicity against human HCT-116 cells assessed as reduction in cell viability incubated for 48 hrs by MTT assay; assay type: functional, cell-based; conditions: HCT-116, 48 h
HCT-116 [21] = assay: Inhibition of colony formation in human HCT-116 cells at 0.01 to 1 uM incubated for 3 to 4 days by crystal violet staining based assay; assay type: functional, cell-based; conditions: dose 0.01-1 µM, time 3-4 day
NCI-H1975 [22] = assay: Inhibition of colony formation in human NCI-H1975 cells at 1 to 100 nM incubated for 3 to 4 days by crystal violet staining based assay; assay type: functional, cell-based; conditions: dose 1-100 nM, time 3-4 day
NCI-H1975 [23] = assay: Antiinvasive activity against human NCI-H1975 cells assessed as reduction in invasion at 1 to 10 nM measured after 48 hrs by DAPI staining based transwell assay; assay type: functional, cell-based; conditions: dose 1-10 nM
HCT-116 [24] = assay: Cytotoxicity against human HCT-116 cells assessed as effect on cell morphology incubated for 48 hrs by DAPI staining based fluorescence microscopy; assay type: functional; conditions: dose 0.01-1 µM
NCI-H1975 [25] = assay: Induction of apoptosis in human NCI-H1975 cells assessed as decrease in Bcl-xl expression at 1 to 100 nM incubated for 48 hrs by Western blot analysis; assay type: functional, cell-based; conditions: dose 1-100 nM
NCI-H1975 [26] = assay: Induction of apoptosis in human NCI-H1975 cells assessed as increase in Bax expression at 1 to 100 nM incubated for 48 hrs by Western blot analysis; assay type: functional, cell-based; conditions: dose 1-100 nM
NCI-H1975 [27] = assay: Antimigratory activity against human NCI-H1975 cells assessed as reduction in migration at 1 nM measured after 96 hrs by scratch wound healing based inverted microscopic analysis relative to control; assay type: functional
HepG2 [28] = assay: Antimigratory activity against human HepG2 cells assessed as reduction in migration at 1 nM measured after 96 hrs by scratch wound healing based inverted microscopic analysis relative to control; assay type: functional
NCI-H1975 [29] = assay: Cytotoxicity against human NCI-H1975 cells assessed as reduction in cell viability incubated for 48 hrs by MTT assay; assay type: functional, cell-based; conditions: NCI-H1975, 48 h
NCI-H1975 [30] = assay: Induction of apoptosis in human NCI-H1975 cells assessed as increase in early apoptotic cells at 1 to 100 nM incubated for 48 hrs by annexin V-FITC and PI staining based flow cytometry analysis; assay type: functional, cell-based; conditions: dose 1-100 nM

CCC1=C[C@@H]2CN(C1)Cc1c([nH]c3ccccc13)[C@@](C(=O)OC)(c1cc3c(cc1OC)N(C)[C@H]1[C@@](O)(C(=O)OC)[C@H](OC(C)=O)[C@]4(CC)C=CCN5CC[C@]31[C@@H]54)C2 [VINORELBINE]
Activity (HepG2 [1]): Active
Activity (NCI-H1975 [2]): 17.39%
inhibition (HepG2 [3]): Dose-dependent effect
Activity (HepG2 [4]): Active
Activity (NCI-H1975 [5]): 51.85%
Activity (NCI-H1975 [6]): Active
inhibition (HepG2 [7]): Dose-dependent effect
inhibition (NCI-H1975 [8]): Active
Activity (NCI-H1975 [9]): Active
pIC50 (HepG2 [10]): 6.96
Activity (HCT-116 [11]): Active
inhibition (HepG2 [12]): inactive
Activity (NCI-H1975 [13]): 34.31%
inhibition (NCI-H1975 [14]): Active
inhibition at 0.0001 µM (HepG2 [15]): 11.7%
inhibition (NCI-H1975 [16]): Dose-dependent effect
inhibition (HepG2 [17]): Dose-dependent effect
inhibition (NCI-H1975 [18]): Dose-dependent effect
Activity (NCI-H1975 [19]): Active
pIC50 (HCT-116 [20]): 7.83
inhibition (HCT-116 [21]): Active
inhibition (NCI-H1975 [22]): Active
inhibition (NCI-H1975 [23]): Active
Activity (HCT-116 [24]): Dose-dependent effect
Activity (NCI-H1975 [25]): Active
Activity (NCI-H1975 [26]): Active
inhibition at 0.001 µM (NCI-H1975 [27]): 0.7%
inhibition at 0.001 µM (HepG2 [28]): 33.1%
pIC50 (NCI-H1975 [29]): 8.10
Activity (NCI-H1975 [30]): Active
